{"source": "paper PMC12655637", "about": "“Design, Synthesis, and Mechanistic Study of Novel Ciprofloxacin/Thiazole Chalcone Hybrids as Potential Anticancer Agents” (Pharmaceuticals, 2025)", "experiment_in_all_cases": "NCI-60 screening, one-dose (10 µM) and five-dose, SRB", "key": {"SNB-75": {"tested_on": "SNB-75", "assay_type": "cell-based, human", "settings": "five-dose; SNB-75"}, "786−0": {"tested_on": "786−0", "assay_type": "cell-based, human"}, "SN12C": {"tested_on": "SN12C", "assay_type": "cell-based, human"}, "A498": {"tested_on": "A498", "assay_type": "cell-based", "settings": "five-dose, A498"}, "HL-60(TB)": {"tested_on": "HL-60(TB)", "assay_type": "cell-based, human"}, "M14": {"tested_on": "M14", "assay_type": "cell-based, human"}, "IGROV1": {"tested_on": "IGROV1", "assay_type": "cell-based, human"}, "MALME-3M": {"tested_on": "MALME-3M", "assay_type": "cell-based, human"}, "MCF7": {"tested_on": "MCF7", "assay_type": "cell-based, human"}, "OVCAR-5": {"tested_on": "OVCAR-5", "assay_type": "cell-based, human", "settings": "five-dose, OVCAR-5"}, "NCI/ADR-RES": {"tested_on": "NCI/ADR-RES", "assay_type": "cell-based, human"}, "SF-295": {"tested_on": "SF-295", "assay_type": "cell-based, human"}, "HCC-2998": {"tested_on": "HCC-2998", "assay_type": "cell-based, human"}, "HCT-116": {"tested_on": "HCT-116", "assay_type": "cell-based, human", "settings": "five-dose, HCT-116"}, "SK-MEL-5": {"tested_on": "SK-MEL-5", "assay_type": "cell-based, human"}, "HCT-15": {"tested_on": "HCT-15", "assay_type": "cell-based, human"}, "[1]": {"settings": "Homo sapiens, five-dose, read-out: LC50 (the source's name)"}, "[2]": {"settings": "Homo sapiens, read-out: LC50 (the source's name)"}, "[3]": {"settings": "Homo sapiens, IGROV-1, five-dose, IGROV1"}, "[4]": {"settings": "Homo sapiens, five-dose, SF-295"}, "[5]": {"settings": "Homo sapiens, five-dose, HCC-2998"}, "[6]": {"settings": "Homo sapiens, five-dose, SK-MEL-5"}, "[7]": {"settings": "Homo sapiens, five-dose, HCT-15"}}}
{"molecule": "Cc1nc(SCC(=O)N2CCN(c3cc4c(cc3F)c(=O)c(C(=O)O)cn4C3CC3)CC2)sc1C(=O)/C=C/c1cccc(F)c1", "note": "[Compound 4d, (E)-1-Cyclopropyl-6-fluoro-7-(4-(2-((5-(3-(3-fluorophenyl)acryloyl)-4-methylthiazol-2-yl)thio)acetyl)piperazin-1-yl)-4-oxo-1,4-dihydroquinoline-3-carboxylic Acid]", "values": [{"measurement": "TGI", "setting": "SNB-75", "result": 100.0, "unit": "µM"}, {"measurement": "activity at 10 µM", "setting": "786−0; Homo sapiens, 10 μM, 786−0, Renal Cancer, read-out: Growth percentage", "result": 41.9, "unit": "%"}, {"measurement": "IC50", "setting": "786−0; Homo sapiens, five-dose, 786−0", "result": "> 100", "unit": "µM"}, {"measurement": "CC50", "setting": "786−0; Homo sapiens, five-dose, 786−0, read-out: LC50 (the source's name)", "result": "> 100", "unit": "µM"}, {"measurement": "TGI", "setting": "786−0; five-dose, 786−0", "result": 100.0, "unit": "µM"}, {"measurement": "activity at 10 µM", "setting": "SN12C; Homo sapiens, 10 μM, Renal Cancer, read-out: Growth percentage", "result": 27.7, "unit": "%"}, {"measurement": "GI50", "setting": "SN12C; Homo sapiens, five-dose", "result": "> 100", "unit": "µM"}, {"measurement": "IC50", "setting": "SN12C; Homo sapiens, five-dose", "result": "> 100", "unit": "µM"}, {"measurement": "CC50", "setting": "SN12C; [1]", "result": "> 100", "unit": "µM"}, {"measurement": "TGI", "setting": "SN12C; five-dose", "result": 100.0, "unit": "µM"}, {"measurement": "GI50", "setting": "A498; Homo sapiens", "result": "> 100", "unit": "µM"}, {"measurement": "IC50", "setting": "A498; Homo sapiens", "result": "> 100", "unit": "µM"}, {"measurement": "CC50", "setting": "A498; [2]", "result": "> 100", "unit": "µM"}, {"measurement": "TGI", "setting": "A498", "result": 100.0, "unit": "µM"}, {"measurement": "activity at 10 µM", "setting": "HL-60(TB); Homo sapiens, HL-60, 10 μM, HL-60(TB), Leukemia, read-out: Growth percentage", "result": -99.8, "unit": "%"}, {"measurement": "IC50", "setting": "HL-60(TB); Homo sapiens, HL-60, five-dose, HL-60(TB)", "result": 2.9, "unit": "µM"}, {"measurement": "IC50", "setting": "HL-60(TB); Homo sapiens, HL-60, leukemia HL-60", "result": 3.7, "unit": "µM"}, {"measurement": "GI50", "setting": "HL-60(TB); Homo sapiens, five-dose, HL-60(TB)", "result": 1.78, "unit": "µM"}, {"measurement": "CC50", "setting": "HL-60(TB); Homo sapiens, five-dose, HL-60(TB), read-out: LC50 (the source's name)", "result": 11, "unit": "µM"}, {"measurement": "TGI", "setting": "HL-60(TB); five-dose, HL-60(TB)", "result": 3.8, "unit": "µM"}, {"measurement": "activity at 10 µM", "setting": "M14; Homo sapiens, 10 μM, M14, Melanoma, read-out: Growth percentage", "result": -15.3, "unit": "%"}, {"measurement": "GI50", "setting": "M14; Homo sapiens, five-dose, M14", "result": 12, "unit": "µM"}, {"measurement": "IC50", "setting": "M14; Homo sapiens, five-dose, M14", "result": "> 100", "unit": "µM"}, {"measurement": "CC50", "setting": "M14; Homo sapiens, five-dose, M14, read-out: LC50 (the source's name)", "result": "> 100", "unit": "µM"}, {"measurement": "TGI", "setting": "M14; five-dose, M14", "result": 100.0, "unit": "µM"}, {"measurement": "Growth percentage", "setting": "IGROV1; 10 μM, IGROV1, Ovarian Cancer", "result": 44.6, "unit": "%"}, {"measurement": "GI50", "setting": "IGROV1; [3]", "result": "> 100", "unit": "µM"}, {"measurement": "IC50", "setting": "IGROV1; [3]", "result": "> 100", "unit": "µM"}, {"measurement": "CC50", "setting": "IGROV1; Homo sapiens, IGROV-1, five-dose, IGROV1, read-out: LC50 (the source's name)", "result": "> 100", "unit": "µM"}, {"measurement": "TGI", "setting": "IGROV1; five-dose, IGROV1", "result": 100.0, "unit": "µM"}, {"measurement": "Growth percentage", "setting": "MALME-3M; 10 μM, Melanoma", "result": 106.8, "unit": "%"}, {"measurement": "GI50", "setting": "MALME-3M; Homo sapiens, five-dose", "result": "> 100", "unit": "µM"}, {"measurement": "IC50", "setting": "MALME-3M; Homo sapiens, five-dose", "result": "> 100", "unit": "µM"}, {"measurement": "CC50", "setting": "MALME-3M; [1]", "result": "> 100", "unit": "µM"}, {"measurement": "TGI", "setting": "MALME-3M; five-dose", "result": 100.0, "unit": "µM"}, {"measurement": "activity at 10 µM", "setting": "MCF7; Homo sapiens, MCF7, 10 μM, MCF7, Breast Cancer, read-out: Growth percentage", "result": -57.6, "unit": "%"}, {"measurement": "GI50", "setting": "MCF7; Homo sapiens, five-dose, MCF7", "result": 0.49, "unit": "µM"}, {"measurement": "IC50", "setting": "MCF7; Homo sapiens, five-dose, MCF7", "result": 0.69, "unit": "µM"}, {"measurement": "CC50", "setting": "MCF7; Homo sapiens, five-dose, MCF7, read-out: LC50 (the source's name)", "result": "> 100", "unit": "µM"}, {"measurement": "TGI", "setting": "MCF7; five-dose, MCF7", "result": 100.0, "unit": "µM"}, {"measurement": "GI50", "setting": "OVCAR-5; Homo sapiens", "result": "> 100", "unit": "µM"}, {"measurement": "IC50", "setting": "OVCAR-5; Homo sapiens", "result": "> 100", "unit": "µM"}, {"measurement": "CC50", "setting": "OVCAR-5; [2]", "result": "> 100", "unit": "µM"}, {"measurement": "TGI", "setting": "OVCAR-5", "result": 100.0, "unit": "µM"}, {"measurement": "activity at 10 µM", "setting": "NCI/ADR-RES; Homo sapiens, 10 μM, Ovarian Cancer, read-out: Growth percentage", "result": 110, "unit": "%"}, {"measurement": "GI50", "setting": "NCI/ADR-RES; Homo sapiens, five-dose", "result": "> 100", "unit": "µM"}, {"measurement": "IC50", "setting": "NCI/ADR-RES; Homo sapiens, five-dose", "result": "> 100", "unit": "µM"}, {"measurement": "CC50", "setting": "NCI/ADR-RES; [1]", "result": "> 100", "unit": "µM"}, {"measurement": "TGI", "setting": "NCI/ADR-RES; five-dose", "result": 100.0, "unit": "µM"}, {"measurement": "activity at 10 µM", "setting": "SF-295; Homo sapiens, 10 μM, SF-295, CNS Cancer, read-out: Growth percentage", "result": 93.1, "unit": "%"}, {"measurement": "GI50", "setting": "SF-295; [4]", "result": "> 100", "unit": "µM"}, {"measurement": "IC50", "setting": "SF-295; [4]", "result": "> 100", "unit": "µM"}, {"measurement": "CC50", "setting": "SF-295; Homo sapiens, five-dose, SF-295, read-out: LC50 (the source's name)", "result": "> 100", "unit": "µM"}, {"measurement": "TGI", "setting": "SF-295; five-dose, SF-295", "result": 8.7, "unit": "µM"}, {"measurement": "activity at 10 µM", "setting": "HCC-2998; Homo sapiens, 10 μM, HCC-2998, Colon Cancer, read-out: Growth percentage", "result": -29, "unit": "%"}, {"measurement": "GI50", "setting": "HCC-2998; [5]", "result": 1.4, "unit": "µM"}, {"measurement": "IC50", "setting": "HCC-2998; [5]", "result": 8.5, "unit": "µM"}, {"measurement": "CC50", "setting": "HCC-2998; Homo sapiens, five-dose, HCC-2998, read-out: LC50 (the source's name)", "result": "> 100", "unit": "µM"}, {"measurement": "TGI", "setting": "HCC-2998; five-dose, HCC-2998", "result": 0.42, "unit": "µM"}, {"measurement": "GI50", "setting": "HCT-116; Homo sapiens", "result": 0.21, "unit": "µM"}, {"measurement": "IC50", "setting": "HCT-116; Homo sapiens", "result": 0.34, "unit": "µM"}, {"measurement": "TGI", "setting": "HCT-116", "result": 100.0, "unit": "µM"}, {"measurement": "activity at 10 µM", "setting": "SK-MEL-5; Homo sapiens, 10 μM, SK-MEL-5, Melanoma, read-out: Growth percentage", "result": 45.1, "unit": "%"}, {"measurement": "GI50", "setting": "SK-MEL-5; [6]", "result": 42.7, "unit": "µM"}, {"measurement": "IC50", "setting": "SK-MEL-5; [6]", "result": "> 100", "unit": "µM"}, {"measurement": "CC50", "setting": "SK-MEL-5; Homo sapiens, five-dose, SK-MEL-5, read-out: LC50 (the source's name)", "result": "> 100", "unit": "µM"}, {"measurement": "TGI", "setting": "SK-MEL-5; five-dose, SK-MEL-5", "result": 100.0, "unit": "µM"}, {"measurement": "activity at 10 µM", "setting": "HCT-15; Homo sapiens, 10 μM, HCT-15, Colon Cancer, read-out: Growth percentage", "result": -41.7, "unit": "%"}, {"measurement": "GI50", "setting": "HCT-15; [7]", "result": 33.9, "unit": "µM"}, {"measurement": "IC50", "setting": "HCT-15; [7]", "result": 53.7, "unit": "µM"}, {"measurement": "LC50 (50% lethal concentration)", "setting": "HCT-15; [7]", "result": "> 100", "unit": "µM"}, {"measurement": "TGI", "setting": "HCT-15; five-dose, HCT-15", "result": 100.0, "unit": "µM"}]}
